Experiments:
[1] = test system: TC cells (human bone marrow stroma cell line HS-5, Cayenne-RFP); experiment: Triple co-culture drug test (DART), flow cytometry: Tox Control cells; type: cell-based; settings: for cytotoxic effect on the TC cells: Example 8, FIG. 9A, Panobinostat 5 nM, Cytarabine 22 nM + Daunorubicine 41 nM, Venetoclax 1.6 μM
Description: DMSO treated wells were used as controls.

[2] = test system: PDC cells from patient OP #23 (acute myeloid leukemia); experiment: Triple co-culture drug test (DART), flow cytometry: PDC cells of patient OP #23; settings: for cytotoxic effect on the PDC cells: Example 8, FIG. 9A, 6 days, Panobinostat 5 nM, Cytarabine 22 nM + Daunorubicine 41 nM, Venetoclax 1.6 μM, PDC:SC:TC 10:1:1
PDCs from an AML patient = experiment: Magnetically printed 3D tumoroid triple co-culture, flow cytometry: PDCs; type: cell-based, human; settings: 3D tumoroids; Cytarabine 200 nM; 6 days; 10,000 PDC, 3,000 SC, 8,000 TC cells
Description: (§1) The 3D tumoroid was formed with or without extracellular matrix (ECM) embedded in culture media. […] On day 1, when the tumoroids were in a fully compact 3D configuration, the multiwell plates containing the tumoroid replicas (1 per well) were subjected to a matrix of treatments, including mono-drugs and combinations.
(§2) Magnetically printed 3D patient-micro-avatars (PMAs) using PDCs from an AML patient were prepared. PDCs from a bone marrow aspirate were processed by Ficoll-Paque to isolate the PBMC fraction, which was printed into 3D tumoroids in co-culture with SC cells and TC cells. Particularly, 10,000 PDC cells were mixed with 3,000 SC cells, and 8,000 TC cells.
(§3) 3D tumoroids so formed were treated for 6 days with vehicle or Cytarabine at 200 nM. […] At the end of the treatment, tumoroids were analyzed first by florescence microscopy (left panel of FIG. 12B). The tumoroids were subsequentially disaggregated mechanically and analyzed by flow cytometry to quantify the surviving fraction of PDCs, SC cells, and TC cells (right panel of FIG. 12B).

SC cells = experiment: Magnetically printed 3D tumoroid triple co-culture, flow cytometry: SC cells; type: cell-based; settings: 3D tumoroids; Cytarabine 200 nM; 6 days
Description: as §1, §2, §3

TC cells = experiment: Magnetically printed 3D tumoroid triple co-culture, flow cytometry: TC cells; type: cell-based; settings: 3D tumoroids; Cytarabine 200 nM; 6 days
Description: as §1, §2, §3

Structure (SMILES)	cytotoxic effect on the TC cells ([1]; 6 days)	cytotoxic effect on the PDC cells [2]	cytotoxic activity on the TC cells ([1]; Example 9, FIG. 9C, four doses, 6 days)	effects on the TC cells ([1]; Example 12, FIG. 11B)	cytotoxic effects on the PDC cells ([2]; Example 12, FIG. 11B, top drugs alone or combined at the lowest dose, standard care in parallel)	cytotoxic effects on the cancer cells (PDCs) (PDCs from an AML patient)	cytotoxic effects on the SC cells (SC cells)	cytotoxicity on the TC cells (TC cells)
Cc1[nH]c2ccccc2c1CCNCc1ccc(/C=C/C(=O)NO)cc1 [Panobinostat]	neither the PDC cells nor the TC cells showed a response	neither the PDC cells nor the TC cells showed a response	–	–	–	–	–	–
CC1(C)CCC(CN2CCN(c3ccc(C(=O)NS(=O)(=O)c4ccc(NCC5CCOCC5)c([N+](=O)[O-])c4)c(Oc4cnc5[nH]ccc5c4)c3)CC2)=C(c2ccc(Cl)cc2)C1 [Venetoclax]	no cytotoxic effect	strong cytotoxic effect	no cytotoxic activity	exerted effects	cytotoxic effects	–	–	–
Nc1ccn([C@@H]2O[C@H](CO)[C@@H](O)[C@@H]2O)c(=O)n1 [cytarabine, Cytarabine]	–	–	–	–	–	strong cytotoxic effects	strong cytotoxic effects	moderate cytotoxicity
